According to patent US20020123514A1, “Treatment of diabetes with thiazolidinedione and alpha-glucosidase inhibitor” (SmithKline Beecham plc, priority 1997, published 2002):

Test: Pharmacokinetic interaction study: single oral dose of Compound (I) alone and coadministered with acarbose
Format: in vivo, healthy volunteers
Protocol: This study investigated whether administration of acarbose (A) alters the PK of co-administered Compound (I). Sixteen healthy volunteers (24-59 yo) received a single oral dose of Compound (I) (8 mg) on Day 1, followed by 7 days of repeat dosing with A (100 mg tid with meals). On Day 8, a single oral dose of Compound (I) was coadministered with the morning dose of A. PK profiles following Compound (I) dosing on Days 1 and 8 were compared. […] PK data and point estimates [95% confidence intervals] for Compound (I)+A: Compound (I) alone were analyzed.

[1] = human, in vivo, Compound (I) alone, single oral dose 8 mg, Day 1, healthy volunteers

Row | effect on Compound (I) clearance (acarbose 100 mg tid coadministered, changes small, not likely clinically relevant) | AUC(0-inf) [1] [µg·h/mL] | Cmax [1] [µg/mL] | half-life (human, in vivo, Compound (I) alone, single oral dose 8 mg, Day 1, healthy volunteers, read-out: T½ (converted)) [h] | Tmax (human, in vivo, Compound (I) alone, single oral dose 8 mg, Day 1, median (range)) [h] | Compound
1 | slightly increase |  |  |  |  | C[C@H]1O[C@H](O[C@H]2[C@H](O)[C@@H](O)[C@@H](O[C@H]3[C@H](O)[C@@H](O)C(O)O[C@@H]3CO)O[C@@H]2CO)[C@H](O)[C@@H](O)[C@@H]1N[C@H]1C=C(CO)[C@@H](O)[C@H](O)[C@H]1O (some centres unmarked) [acarbose, reference compound]
2 |  | 2.79 | 0.428 | 4.93 | 1.48 | CN(CCOc1ccc(CC2SC(=O)NC2=O)cc1)c1ccccn1 (centres unmarked) [Compound (I), 5-[4-[2-(N-methyl-N-(2-pyridyl)amino)ethoxy]benzyl]thiazolidine-2,4-dione]
